Test results from patent publication US6737383B1, “Herbicidal oxadiazolidines” (priority 1999, dated 2004).

Experiments:
pigweed = assay: Test B pre/postemergence pigweed; assay type: in vivo, Amaranthus retroflexus
Summary of the method: (§1)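 Herbicidal effect was estimated by eye on a ten-point control scale after plants spent twelve to sixteen days in a greenhouse following soil or foliar treatment. Foliar sprays targeted plants at one to four leaves; all doses were formulated in a non-phytotoxic solvent with surfactant.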

wild oat = assay: Test B pre/postemergence wild oat; assay type: in vivo, Avena fatua
Summary of the method: as §1

morningglory = assay: Test B pre/postemergence morningglory; assay type: in vivo, Ipomoea hederacea
Summary of the method: as §1

crabgrass = assay: Test B pre/postemergence crabgrass; assay type: in vivo, Digitaria sanguinalis
Summary of the method: as §1

soybean = assay: Test B pre/postemergence soybean; assay type: in vivo, Glycine max
Summary of the method: as §1

purple nutsedge = assay: Test B pre/postemergence purple nutsedge; assay type: in vivo, Cyperus rotundus
Summary of the method: as §1

sugar beet = assay: Test B pre/postemergence sugar beet; assay type: in vivo, Beta vulgaris
Summary of the method: as §1

rape = assay: Test B pre/postemergence rape; assay type: in vivo, Brassica napus
Summary of the method: as §1

surinam grass = assay: Test B pre/postemergence surinam grass; assay type: in vivo, Brachiaria decumbens
Summary of the method: as §1

corn = assay: Test B pre/postemergence corn; assay type: in vivo, Zea mays
Summary of the method: as §1

blackgrass = assay: Test B pre/postemergence blackgrass; assay type: in vivo, Alopecurus myosuroides
Summary of the method: as §1

bedstraw = assay: Test B pre/postemergence bedstraw; assay type: in vivo, Galium aparine
Summary of the method: as §1

cocklebur = assay: Test B pre/postemergence cocklebur; assay type: in vivo, Xanthium strumarium
Summary of the method: as §1

velvetleaf = assay: Test B pre/postemergence velvetleaf; assay type: in vivo, Abutilon theophrasti
Summary of the method: as §1

wheat = assay: Test B pre/postemergence wheat; assay type: in vivo, Triticum aestivum
Summary of the method: as §1

giant foxtail = assay: Test B pre/postemergence giant foxtail; assay type: in vivo, Setaria faberii
Summary of the method: as §1

[1] = Postemergence, Rate 62 g/ha, scale of 0 to 10, 0 is no effect, 10 is complete control
[2] = Postemergence, Rate 125 g/ha, scale 0 to 10, 0 is no effect, 10 is complete control
[3] = Postemergence, Rate 500 g/ha, scale 0 to 10, 0 is no effect, 10 is complete control
[4] = Preemergence, Rate 62 g/ha, scale of 0 to 10 where 0 is no effect and 10 is complete control
[5] = Preemergence, Rate 125 g/ha, scale 0 to 10, 0 is no effect, 10 is complete control
[6] = Preemergence, Rate 500 g/ha, scale of 0 to 10 where 0 is no effect and 10 is complete control
[7] = Rate 250 g/ha, Postemergence, scale of 0 to 10 where 0 is no effect and 10 is complete control
[8] = Preemergence, Rate 500 g/ha, scale 0 to 10, 0 is no effect, 10 is complete control

Compound: CCOC(=O)C=C(Cn1c(=O)on(C(=O)N(c2ccc(F)cc2F)C(C)C)c1=O)OCC [Compound 519]
- Redroot pigweed plant response rating (pigweed; [1]): 0
- Redroot pigweed plant response rating (pigweed; [2]): 0
- Plant response rating, Redroot pigweed (pigweed; [3]): 0
- Plant response rating, Redroot pigweed (pigweed; [4]): 0
- Redroot pigweed plant response rating (pigweed; [5]): 0
- Redroot pigweed plant response rating (0 to 10 scale) (pigweed; Preemergence, Rate 250 g/ha): 0
- Redroot pigweed plant response rating (pigweed; [6]): 0
- Plant response rating, Redroot pigweed (pigweed; [7]): 0
- Wild oats plant response rating (wild oat; [1]): 0
- Wild oats plant response rating (wild oat; [2]): 0
- Plant response rating, Wild oats (wild oat; [3]): 0
- Plant response rating, Wild oats (wild oat; [4]): 0
- Wild oats plant response rating (wild oat; [5]): 0
- Wild oats plant response rating (0 to 10 scale) (wild oat; Preemergence, Rate 250 g/ha): 0
- Wild oats plant response rating (wild oat; [6]): 0
- Plant response rating, Wild oats (wild oat; [7]): 0
- Morningglory plant response rating (morningglory; [1]): 0
- Morningglory plant response rating (morningglory; [2]): 0
- Plant response rating, Morningglory (morningglory; [3]): 0
- Plant response rating, Morningglory (morningglory; [4]): 0
- Morningglory plant response rating (morningglory; [5]): 0
- Morningglory plant response rating (0 to 10 scale) (morningglory; Preemergence, Rate 250 g/ha): 0
- Morningglory plant response rating (morningglory; [6]): 0
- Plant response rating, Morningglory (morningglory; [7]): 0
- Crabgrass plant response rating (crabgrass; [1]): 0
- Crabgrass plant response rating (crabgrass; [2]): 2
- Plant response rating, Crabgrass (crabgrass; [3]): 6
- Plant response rating, Crabgrass (crabgrass; [4]): 7
- Crabgrass plant response rating (crabgrass; [5]): 8
- Crabgrass plant response rating (0 to 10 scale) (crabgrass; Preemergence, Rate 250 g/ha): 10
- Crabgrass plant response rating (crabgrass; [6]): 10
- Plant response rating, Crabgrass (crabgrass; [7]): 6
- Soybean plant response rating (soybean; [1]): 3
- Soybean plant response rating (soybean; [2]): 3
- Plant response rating, Soybean (soybean; [3]): 4
- Plant response rating, Soybean (soybean; [4]): 0
- Soybean plant response rating (soybean; [5]): 0
- Soybean plant response rating (0 to 10 scale) (soybean; Preemergence, Rate 250 g/ha): 0
- Soybean plant response rating (soybean; [6]): 0
- Plant response rating, Soybean (soybean; [7]): 4
- Nutsedge plant response rating (purple nutsedge; [2]): 0
- Plant response rating, Nutsedge (purple nutsedge; [3]): 0
- Plant response rating, Nutsedge (purple nutsedge; [4]): 0
- Nutsedge plant response rating (purple nutsedge; [5]): 0
- Nutsedge plant response rating (purple nutsedge; [6]): 0
- Sugarbeets plant response rating (sugar beet; [1]): 0
- Sugarbeets plant response rating (sugar beet; [2]): 0
- Plant response rating, Sugarbeets (sugar beet; [3]): 0
- Plant response rating, Sugarbeets (sugar beet; [4]): 0
- Sugarbeets plant response rating (sugar beet; [5]): 0
- Sugarbeets plant response rating (0 to 10 scale) (sugar beet; Preemergence, Rate 250 g/ha): 0
- Sugarbeets plant response rating (sugar beet; [6]): 0
- Plant response rating, Sugarbeets (sugar beet; [7]): 0
- Rape plant response rating (rape; [1]): 0
- Rape plant response rating (rape; [2]): 0
- Plant response rating, Rape (rape; [3]): 0
- Plant response rating, Rape (rape; [4]): 0
- Rape plant response rating (rape; [5]): 0
- Rape plant response rating (0 to 10 scale) (rape; Preemergence, Rate 250 g/ha): 0
- Rape plant response rating (rape; [6]): 0
- Plant response rating, Rape (rape; [7]): 0
- B. signalgrass plant response rating (surinam grass; [1]): 0
- B. signalgrass plant response rating (surinam grass; [2]): 0
- Plant response rating, B. signalgrass (surinam grass; [3]): 0
- Plant response rating, B. signalgrass (surinam grass; [4]): 0
- B. signalgrass plant response rating (surinam grass; [5]): 0
- B. signalgrass plant response rating (0 to 10 scale, 0 is no effect, 10 is complete control) (surinam grass; Preemergence, Rate 250 g/ha): 0
- B. signalgrass plant response rating (surinam grass; [8]): 0
- Plant response rating, B. signalgrass (surinam grass; [7]): 0
- Corn plant response rating (corn; [1]): 0
- Corn plant response rating (corn; [2]): 0
- Plant response rating, Corn (corn; [3]): 0
- Plant response rating, Corn (corn; [4]): 0
- Corn plant response rating (corn; [5]): 0
- Corn plant response rating (0 to 10 scale) (corn; Preemergence, Rate 250 g/ha): 0
- Corn plant response rating (corn; [6]): 0
- Plant response rating, Corn (corn; [7]): 0
- Blackgrass plant response rating (blackgrass; [1]): 0
- Blackgrass plant response rating (blackgrass; [2]): 0
- Plant response rating, Blackgrass (blackgrass; [3]): 0
- Plant response rating, Blackgrass (blackgrass; [4]): 0
- Blackgrass plant response rating (blackgrass; [5]): 0
- Blackgrass plant response rating (0 to 10 scale) (blackgrass; Preemergence, Rate 250 g/ha): 4
- Blackgrass plant response rating (blackgrass; [6]): 4
- Plant response rating, Blackgrass (blackgrass; [7]): 0
- Bedstraw plant response rating (bedstraw; [1]): 0
- Plant response rating, Bedstraw (bedstraw; [3]): 0
- Plant response rating, Bedstraw (bedstraw; [4]): 0
- Bedstraw plant response rating (bedstraw; [5]): 0
- Bedstraw plant response rating (0 to 10 scale) (bedstraw; Preemergence, Rate 250 g/ha): 0
- Bedstraw plant response rating (bedstraw; [8]): 0
- Plant response rating, Bedstraw (bedstraw; [7]): 0
- Cocklebur plant response rating (cocklebur; [1]): 0
- Cocklebur plant response rating (cocklebur; [2]): 0
- Plant response rating, Cocklebur (cocklebur; [3]): 0
- Plant response rating, Cocklebur (cocklebur; [4]): 0
- Cocklebur plant response rating (cocklebur; [5]): 0
- Cocklebur plant response rating (0 to 10 scale) (cocklebur; Preemergence, Rate 250 g/ha): 0
- Cocklebur plant response rating (cocklebur; [6]): 0
- Plant response rating, Cocklebur (cocklebur; [7]): 0
- Velvetleaf plant response rating (velvetleaf; [1]): 2
- Velvetleaf plant response rating (velvetleaf; [2]): 2
- Plant response rating, Velvetleaf (velvetleaf; [3]): 4
- Plant response rating, Velvetleaf (velvetleaf; [4]): 0
- Velvetleaf plant response rating (velvetleaf; [5]): 0
- Velvetleaf plant response rating (0 to 10 scale) (velvetleaf; Preemergence, Rate 250 g/ha): 0
- Velvetleaf plant response rating (velvetleaf; [6]): 0
- Plant response rating, Velvetleaf (velvetleaf; [7]): 4
- Wheat plant response rating (wheat; [1]): 0
- Wheat plant response rating (wheat; [2]): 0
- Plant response rating, Wheat (wheat; [3]): 0
- Plant response rating, Wheat (wheat; [4]): 0
- Wheat plant response rating (wheat; [5]): 0
- Wheat plant response rating (0 to 10 scale) (wheat; Preemergence, Rate 250 g/ha): 0
- Wheat plant response rating (wheat; [6]): 0
- Plant response rating, Wheat (wheat; [7]): 0
- Giant foxtail plant response rating (giant foxtail; [1]): 4
- Giant foxtail plant response rating (giant foxtail; [2]): 4
- Plant response rating, Giant foxtail (giant foxtail; [3]): 6
- Plant response rating, Giant foxtail (giant foxtail; [4]): 10
- Giant foxtail plant response rating (giant foxtail; [5]): 10
- Giant foxtail plant response rating (0 to 10 scale) (giant foxtail; Preemergence, Rate 250 g/ha): 10
- Giant foxtail plant response rating (giant foxtail; [6]): 10
- Plant response rating, Giant foxtail (giant foxtail; [7]): 4
